From patent US20050222218A1, “Screening method and compounds for treating friedreich ataxia” (priority 2002, published 2005)
“Also recorded” adds a separate entry of the source. Read-outs that look alike come from different tables or passages of the source.

Tests used:
Assay type in all cases: cell-based, human
[1] = test system: GPX enzymatic activity in FRDA cells; assay: Glutathione peroxidase activity in FRDA cell extracts
Experimental: (§1) Control and FRDA cells (5×10^5 cells grown in 10 cm dishes) were preincubated with sodium selenite (500 nM) for 24 hours and then subjected to 1 mM BSO treatment for 24 hours. Total cell extracts were used to measure glutathione content, glutathione peroxidase activity and glutathione-S-transferase activity.
(§2) To determine the glutathione peroxidase activity, cell extracts obtained for total GSH measurements were adjusted with PBS to a final protein concentration of 1.85 mg/ml. Enzymatic activity was measured with the Glutathione peroxidase cellular activity assay kit (Sigma, St Louis, Mo.) essentially according to the instructions of the manufacturer: Enzymatic activity was measured with 40 μg total protein extract in a final reaction volume of 100 μl. NADPH consumption was measured by the decrease in NADPH fluorescence at 445 nm. All measurements were done in triplicate in 96-well plates with a Gemini spectrofluorimeter using excitation and emission wavelengths of 340 nm and 445 nm respectively. Glutathione-S-transferase activity was determined in the same way as the glutathione content, except that the assay was performed in the presence of an excess of glutathione (1 mM) instead of an excess of exogenous glutathione-S-transferase. Because the BSO treatment is known to deplete cellular (GSH) levels, intracellular GSH concentrations were measured first. Any difference in basal glutathione levels between the two cell lines that were tested were not observed (FIG. 4, panel A). […] (FIG. 4, panel A). From this, it was concluded that the GSH levels per se are not responsible for the observed difference in phenotype between the two cell types. […] Therefore, GPX enzymatic activity in extracts from both cell types was compared. This measurement is based on the recycling of oxidized glutathione generated by GPX, using tert-butyl hydroperoxide as substrate. Oxidized glutathione is reduced by an excess exogenous glutathione reductase that will consume a corresponding amount of NADPH that is then measured by fluorescence. […]

[2] = test system: GST activity in control cells; assay: Glutathione-S-transferase activity in control cell extracts; conditions: 500 nM sodium selenite or 1 mM BSO
Experimental: as §1
(§3) To determine the glutathione peroxidase activity, cell extracts obtained for total GSH measurements were adjusted with PBS to a final protein concentration of 1.85 mg/ml. Enzymatic activity was measured with the Glutathione peroxidase cellular activity assay kit (Sigma, St Louis, Mo.) essentially according to the instructions of the manufacturer: Enzymatic activity was measured with 40 μg total protein extract in a final reaction volume of 100 μl. NADPH consumption was measured by the decrease in NADPH fluorescence at 445 nm. […] Glutathione-S-transferase activity was determined in the same way as the glutathione content, except that the assay was performed in the presence of an excess of glutathione (1 mM) instead of an excess of exogenous glutathione-S-transferase. Because the BSO treatment is known to deplete cellular (GSH) levels, intracellular GSH concentrations were measured first. […] Oxidized glutathione is reduced by an excess exogenous glutathione reductase that will consume a corresponding amount of NADPH that is then measured by fluorescence. […]

[3] = test system: FRDA fibroblasts; assay: BSO sensitivity of FRDA fibroblasts (cell viability)
Experimental: (§4) Friedreich Ataxia primary culture fibroblast cell lines F1 and control fibroblast line C1 were provided by the Insel-Spital Bern (Switzerland), FRDA line F3 was provided by Hopital Necker, Paris (France), FRDA lines F2 and control lines C2 and C3 were obtained from Coriell Cell Repositories (Camden, N.J.; catalog numbers GM04078, GM08402 and GM08399 respectively). Cells were grown in a humidified atmosphere supplemented with 5% CO2. […]
(§5) The cells were seeded in 96-well plates at a density of 4000 cells/well. […] Cell viability was measured when the first signs of toxicity appeared in the controls (typically after 12 to 48 h). […] The plates were washed twice with PBS and fluorescence intensity was measured with a Gemini Spectramax XS spectrofluorimeter (Molecular Devices, Sunnyvale, Calif.) using excitation and emission wavelengths of 485 nm and 525 nm respectively. Live cells imaging was performed with a Zeiss Axiovert 135M fluorescence microscope equipped with a cooled CCD camera (Sensicam, PCO Computer Optics, Kelheim, FRG). […]

[4] = test system: GPX enzymatic activity in control cells; assay: Glutathione peroxidase activity in control cell extracts
Experimental: as §1, §2

[5] = test system: control fibroblasts; assay: BSO sensitivity of control fibroblasts (cell viability)
Experimental: as §4, §5

[6] = test system: intracellular GSH in control and FRDA cells; assay: Intracellular glutathione content (monochlorobimane method)
Experimental: as §1
To determine the glutathione content, cells were trypsinized, washed twice with PBS and snap frozen in 100 μl PBS. Cells were lysed in PBS supplemented with a protease inhibitor cocktail (Complete, Roche Diagnostics, Rotkreuz, Switzerland) by 4 freeze/thaw cycles. Total protein content was measured with the BioRad protein assay (BioRad, Hercules, Calif.) using calibrated bovine serum albumin solutions as standards (Pierce). Reduced glutathione content was measured essentially as described (Kamencic, H., et al., Monochlorobimane fluorometric method to measure tissue glutathione, Anal Biochem, 286, 35-7., (2000)) with a final monochlorobimane (mClB) (Molecular Probes, Eugene, Oreg.) concentration of 25 μM. The GSH-mClB adduct fluorescence was measured with a Gemini spectrofluorimeter using excitation and emission wavelengths of 380 nm and 470 nm respectively. Known amounts of reduced glutathione were used as standards.

[7] = test system: FRDA fibroblasts; assay: Rescue of FRDA fibroblasts from BSO-induced cell death (CalceinAM/ethidium homodimer cell viability)
Experimental: Friedreich Ataxia primary culture fibroblast cell lines F1 and control fibroblast line C1 were provided by the Insel-Spital Bern (Switzerland), FRDA line F3 was provided by Hopital Necker, Paris (France), FRDA lines F2 and control lines C2 and C3 were obtained from Coriell Cell Repositories (Camden, N.J.; catalog numbers GM04078, GM08402 and GM08399 respectively). Cells were grown in a humidified atmosphere supplemented with 5% CO2. For experiments, the cells were trypsinized and resuspended at a density of 40000 cells/ml in growth medium consisting of 25% (v/v) M199 EBS and 64% (v/v) MEM EBS without phenol red (Bioconcept, Allschwil, Switzerland) supplemented with 10% (v/v) fetal calf serum (PAA Laboratories, Linz, Austria), 100 U/ml penicillin, 100 μg/ml streptomycin (PAA Laboratories, Linz, Austria), 10 μg/ml insulin (Sigma, Buchs, Switzerland), 10 ng/ml EGF (Sigma, Buchs, Switzerland) and 10 ng/ml bFGF (PreproTech, Rocky Hill, N.J.) and 2 mM glutamine (Sigma, Buchs, Switzerland).
The cells were seeded in 96-well plates at a density of 4000 cells/well. They were incubated in the presence of various concentrations of L-buthionine-(S,R)-sulfoximine (BSO), an inhibitor of γ-glutamyl cysteine synthase (EC: 6.3.2.2), the rate limiting enzyme in the biosynthesis of glutathione. Cell viability was measured when the first signs of toxicity appeared in the controls (typically after 12 to 48 h). The cells were stained for 60 min at room temperature in PBS with 1.2 μM CalceinAM and 4 μM Ethidium homodimer (Live/Dead assay, Molecular Probes, Eugene, Oreg.). The plates were washed twice with PBS and fluorescence intensity was measured with a Gemini Spectramax XS spectrofluorimeter (Molecular Devices, Sunnyvale, Calif.) using excitation and emission wavelengths of 485 nm and 525 nm respectively. Live cells imaging was performed with a Zeiss Axiovert 135M fluorescence microscope equipped with a cooled CCD camera (Sensicam, PCO Computer Optics, Kelheim, FRG). Image acquisition was performed with the ImagePro Plus software (Media Cybermetics, Silver Spring, Md.).
[…] Cell viability was measured as described in Example 2.
Cell viability was measured after a further 48 hours incubation as described in Example 2. EC50 values were deduced from the dose-response curves. The natural CoQ10 was not active in this assay (Table 1). However, a possible bioavailability problem with this molecule due to its 50 carbon atom side chain can not be ruled out. CoQ1 had EC50 values similar to Idebenone (0.2 μM). CoQ2 performed better than Idebenone, with an EC50 value of 30 nM. […] Decylubiquinone was almost as effective as CoQ2, with an EC50 of 40 nM.
FRDA cells were incubated with increasing concentrations of sodium selenite (prepared as a stock solution 5 mM in PBS) for 24 hours, then subjected to BSO stress. Cell viability was measured as described in Example 2.
Based on the previous results, the hypothesis whether small-molecules GPX mimetics could rescue the cell death phenotype of FRDA cells when exposed to BSO was tested. FRDA cells were incubated for 24 hours in the presence of Ebselen, a GPX mimetic (Muller, A., et al., “A novel biologically active seleno-organic compound—I. Glutathione peroxidase-like activity in vitro and antioxidant capacity of PZ 51 (Ebselen)”, Biochem Pharmacol, 33, 3235-9., (1984)) and then subjected to 1 mM BSO treatment.
FRDA cells were incubated in the presence of a number of GPX mimetics. Two classes of molecules (FIG. 7) were evaluated: monoselenides (compound number 4, 5 and 8) and diselenides (compound number 1-3, 6, 7, 9-16). Dose-response curves were obtained for each molecule. From the dose-response curves not only the EC50, but also the concentration range for which a molecule produced at least 50% cell survival upon BSO challenge was calculated (FIG. 8).
GPX mimetics were tested as described in Example 3. Dose-response curves were obtained for all compounds tested. […]

[8] = test system: FRDA fibroblasts; assay: as above; conditions: no preincubation
[9] = test system: GST activity in FRDA cells; assay: Glutathione-S-transferase activity in FRDA cell extracts; conditions: 500 nM sodium selenite
Experimental: as §1, §3

[10] = Homo sapiens, Fibroblast, Table 1, 24 h preincubation, 1 mM BSO, viability after further 48 h, read-out: EC50
[11] = 500 nM sodium selenite, then 1 mM BSO
[12] = FRDA cells preincubated 24 h with compound, then 1 mM BSO, read-out: EC50 value, prevention of cell death

CCCCS(=N)(=O)CCC(N)C(=O)O [BSO, L-buthionine-(S,R)-sulfoximine]
effect of BSO on GPX enzyme activity ([1]; 1 mM BSO 24 h, no selenium): small decrease in enzyme activity
effect on GST activity [2]: neither modulated
viability compared to untreated controls ([3]; 1 mM BSO, FRDA cell lines F1-F3): less than 10%
BSO concentration giving marked reduction in cell titer ([3]; overnight exposure): 4 µM
effect of BSO on GPX enzyme activity ([4]; 1 mM BSO 24 h, no selenium): small decrease in enzyme activity
viability compared to untreated controls (average) ([5]; 1 mM BSO, control cell lines C1-C3): 60%
BSO concentration giving slight decrease in cell density ([5]; overnight exposure): 100 µM
effect of BSO on glutathione levels ([6]; 1 mM BSO 24 h, both cell types): reduction in glutathione levels

COC1=C(OC)C(=O)C(C)=CC1=O [CoQ0]
activity in rescuing FRDA cells from BSO (in words) ([7]; 24 h preincubation, 1 mM BSO): inactive; also recorded: not active

COC1=C(OC)C(=O)C(C/C=C(\C)CCC=C(C)C)=C(C)C1=O [CoQ2]
EC50 ([7]; FRDA cells preincubated 24 h with compound, then 1 mM BSO, viability after further 48 h, read-out: EC50 value, rescue of FRDA cell death): 30 nM

COC1=C(OC)C(=O)C(C/C=C(\C)CC/C=C(\C)CC/C=C(\C)CC/C=C(\C)CC/C=C(\C)CC/C=C(\C)CC/C=C(\C)CC/C=C(\C)CC/C=C(\C)CCC=C(C)C)=C(C)C1=O [CoQ10]
activity in rescuing FRDA cells from BSO (in words) ([7]; 24 h preincubation, 1 mM BSO): not active; also recorded: did not reach the 50% cell viability rescue
EC50 ([7]; Table 1, 24 h preincubation, 1 mM BSO, viability after further 48 h, read-out: EC50): > 50000 nM

CCCCCCCCCCC1=C(C)C(=O)C(OC)=C(OC)C1=O [Decylubiquinone, 2,3-Dimethoxy-5-methyl-6-decyl-1,4-benzoquinone]
working range (concentrations giving at least 50% cell viability) ([7]; 1 mM BSO): up to 3 orders of magnitude
EC50 ([7]; Homo sapiens, Fibroblast, FRDA cells preincubated 24 h with compound, then 1 mM BSO, viability after further 48 h, read-out: EC50 value, rescue of FRDA cell death): 40 nM
EC50 [7, 10]: 40 nM

COC1=C(OC)C(=O)C(CCCCCCCCCCO)=C(C)C1=O [Idebenone, 2,3-dimethoxy-5-methyl-6(10-hydroxydecyl)-1,4-benzoquinone]
rescue effect at the highest concentration tested ([7]; 50 μM compound, 1 mM BSO): slightly diminished
appearance of treated cells upon microscopic examination ([7]; 1 mM BSO + 5 μM Idebenone, CalceinAM/ethidium homodimer): undistinguishable from untreated cells
concentration at which full rescue was observed ([7]; 24 h preincubation, 1 mM BSO): 2 µM
EC50 ([7]; Homo sapiens, Fibroblast, FRDA cells preincubated 24 h with compound, then 1 mM BSO, read-out: EC50 value, prevention of cell death): 500 nM
EC50 [7, 10]: 500 nM

Cc1c(C)c2c(c(C)c1O)CCC(C)(C(=O)O)O2 (stereo not shown) [Trolox, 6-hydroxy-2,5,7,8-tetramethylchroman-2-carboxylic acid]
viability at 25 µM ([7]; Homo sapiens, Fibroblast, read-out: cell viability preserved): 60%
cell viability ([7]; concentrations higher than 25 μM, 1 mM BSO): 55%

O=[Se]([O-])[O-].[Na+].[Na+] [sodium selenite]
increase in basal GPX enzyme activity ([1]; 500 nM sodium selenite, no BSO): 50%
factor of increase in GPX activity [1, 11]: 3
effect on GST activity [2]: neither modulated
effect on basal GPX activity ([4]; 500 nM sodium selenite, no BSO): not enhanced
effect on GPX activity under BSO treatment [4, 11]: prevented the enzyme activity loss
protection when added at the same time as BSO [8]: did not protect
effect on GST activity [9]: slightly reduces
concentration that protected the cells fully ([7]; 24 h preincubation, then BSO): 200 nM
effect of concentrations higher than 200 nM ([7]; 24 h preincubation, then BSO): enhanced cell growth
effect of selenium preincubation on BSO glutathione depletion ([6]; 500 nM sodium selenite 24 h, then 1 mM BSO 24 h): did not prevent the glutathione depletion

CoQ1
EC50 [7, 12]: 200 nM

Vitamin E
EC50 [7, 12]: 700 nM
